Patent US8741944B2, “Anti-infective agents against intracellular pathogens” (priority 2007, dated 2014)
“Also recorded” adds a separate entry of the source. Read-outs that look alike come from different tables or passages of the source.

How the values were obtained:
[1] = tested on: F. novicida; type: cell-based; details: RAW 264.7 cells, 1 μM for 24 h
[2] = biological target: recombinant PDK-1 (Homo sapiens (Human), UniProt O15530); experiment: PDK-1 kinase activity (PDK-1 kinase assay kit, cell-free); type: biochemical; details: for IC50: inhibiting recombinant PDK-1 kinase activity
Method: PDK-1 kinase activity This in vitro assay was performed using a PDK-1 kinase assay kit (Upstate, Lake Placid, N.Y.) according to the vendor's instructions. This cell-free assay is based on the ability of recombinant PDK-1, in the presence of DMSO vehicle or the test agent, to activate its downstream kinase serum- and glucocorticoid-regulated kinase (SGK.) which, in turn, phosphorylates the Akt/SGK-specific peptide substrate RPRAATF with [γ-^32]-ATP. […] The reported values represent the means of two independent determinations.

[3] = in vivo
[4] = tested on: S. typhimurium; experiment: Extracellular bacterial growth in liquid medium and on agar (disc-diffusion); type: cell-based, Salmonella typhimurium; details: concentrations of up to 5 μM
[5] = tested on: S. typhimurium; experiment: Intracellular survival (gentamicin protection) assay, S. typhimurium in RAW 264.7 murine macrophages; type: cell-based, Salmonella typhimurium
Method: The discovery that OSU-03012 induces autophagy in human cancer cells, coupled with the importance of autophagy as a defense against intracellular pathogens, prompted us to test the effect of this agent on the intracellular survival of S. typhimurium in infected RAW 264.7 murine macrophages. Both time- and dose-dependent effects of OSU-03012 were assessed in intracellular survival (i.e. gentamicin protection) assays. […] To determine if OSU-03012 had direct bactericidal activity, the effect of OSU-03012 on extracellular bacterial growth was examined in liquid medium (FIG. 3C) and on agar by the disc-diffusion method (not shown).

[6] = tested on: autophagy; experiment: Autophagy induction; type: cell-based, human
Description: OSU-03012 eliminates intracellular S. typhimurium by inducing autophagy in infected macrophages. […] Additional evidence for this mechanism of action comes from the human breast cancer cell lines, MCF-7 and MDA-MB-231, which differ in their expression levels of beclin-1, a tumor suppressor that is critical for the execution of autophagy (FIG. 5A). Accordingly, the ability of OSU-03012 to induce autophagy in these cell lines, as determined by the intensity of immunostaining for endogenous LC3, a marker of mammalian autophagosomes (FIG. 5C), correlates with their respective beclin-1 expression levels. Moreover, intracellular bacterial survival in OSU-03012-treated S. typhimurium-infected breast cancer cells also reflects their respective beclin-1 status (FIG. 5B). […] Moreover, OSU-03012 induces autophagy and bacterial clearance far more potently than rapamycin and at clinically attainable concentrations.

[7] = tested on: PC-3 cells; experiment: Cell viability analysis, MTT assay in PC-3 cells; type: cell-based, human
Method: Cell Culture PC-3 (p53−/−) human androgen-non-responsive prostate cancer cells were purchased from the American […] (Manassas, Va.). Cells were cultured in RPMI 1640 medium (Gibco, Grand Island, N.Y.) supplemented with 10% fetal bovine serum (FBS; Gibco) at 37° C. in a humidified incubator containing 5% CO2.
Controls received DMSO vehicle at a concentration equal to that in drug-treated cells. The medium was removed, replaced by 200 μl of 0.5 mg/ml of MTT in 10% FBS-containing RPMI-1640 medium, and cells were incubated in the CO2 incubator at 37° C. for 2 h. Supernatants were removed from the wells, and the reduced MTT dye was solubilized in 200 μL/well DMSO. Absorbance at 570 nm was determined on a plate reader.

[8] = tested on: Akt; experiment: Immunoprecipitated Akt kinase assay after treatment of PC-3 cells (intracellular Akt activation); type: cell-based, human; details: PC-3 cells treated for 2 h; read-out: IC50 for inhibiting intracellular Akt activation
Method: Immunoprecipitated Akt kinase assay Akt immunoprecipitation was carried out according to a modified, published procedure. PC-3 cells were treated with DMSO vehicle or the test agents at the indicated concentrations for 2 h and then lysed at 4° C. for 1 h in buffer A containing 50 mM Tris-HCl, pH 7.5, 1% Triton X-100, 1 mM EDTA, 1 mM EGTA, 50 mM sodium fluoride, 10 mM sodium β-glycerophosphate. 0.1% 2-mercaptoethanol, 0.1 mM phenylmethylsiilfonyl fluoride, and 1 μg/mL each of aprotinin, pepstatin, and leupeptin. Cell lysates were centrifuged at 10,000 g for 5 min, and the supernatant was treated with anti-Akt at 4° C. for 60 min., followed by protein G-agarose beads for additional 60 min. The immunoprecipitate was used to analyze Akt kinase activity by using the Akt/SGK-specific peptide substrate RPRAATF as described above. Values represented the means of two independent determinations.

[9] = tested on: phospho-Akt; experiment: Western blot analysis of Akt and phospho-Akt in PC-3 cells; type: cell-based, human; details: 5 μM and above
Method: Immunoblotting. The general procedure for the Western blot analysis of Akt and phospho-Akt is described as follows. Cells were washed in PBS, resuspended in SDS sample buffer sonicated by an ultrasonic sonicator for 5 see, and boiled for 5 min. After brief centrifugation, equivalent protein concentrations from the soluble fractions were resolved in 10% SDS-polyacrylamide gels on a Minigel apparatus, and transferred to a nitrocellulose membrane using a semi-dry transfer cell. The transblotted membrane was washed three times with TBS containing 0.05% Tween 20 (TBST). After blocking with TBST containing 5% nonfat milk for 60 min., the membrane was incubated with the primary antibody at 1:1,000 dilution in TBST-5% low fat milk at 4° C. for 12 h, and was then washed three times with TBST. The membrane was probed with goat anti-rabbit IgG-HRP conjugates (1:1,000) for 1 h at room temperature, and was washed with TBST three times. The immunoblots were visualized by enhanced chemiluminescence.

[10] = tested on: PC-3 cells; experiment: Cell proliferation of PC-3 cells (Coulter counter, 10% FBS); type: cell-based, human; details: 1 μM, 10% FBS-supplemented RPMI 1640 medium
Method: Cell Proliferation PC-3 cells were seeded into six-well plates at 50,000 cells/well in 10% FBS-containing RPMI 1640 medium. Following a 24 h attachment period, cells were treated in triplicate with the indicated concentration of compounds 1-36 or DMSO vehicle in 10% FBS-containing RPMI-1640 medium. At different time intervals, cells were harvested by trypsinization, and numerated using a Coulter counter model Z1 D/T (Beckman Coulter, Fullerton, Calif.).

[11] = tested on: Akt; experiment: Direct inhibition of immunoprecipitated Akt kinase activity; type: biochemical, human
[12] = inducing apoptotic death in PC-3 cells / PC-3 cell viability, read-out: IC50 PC-3

Sequence of recombinant PDK-1 (O15530 whole entry, looked up): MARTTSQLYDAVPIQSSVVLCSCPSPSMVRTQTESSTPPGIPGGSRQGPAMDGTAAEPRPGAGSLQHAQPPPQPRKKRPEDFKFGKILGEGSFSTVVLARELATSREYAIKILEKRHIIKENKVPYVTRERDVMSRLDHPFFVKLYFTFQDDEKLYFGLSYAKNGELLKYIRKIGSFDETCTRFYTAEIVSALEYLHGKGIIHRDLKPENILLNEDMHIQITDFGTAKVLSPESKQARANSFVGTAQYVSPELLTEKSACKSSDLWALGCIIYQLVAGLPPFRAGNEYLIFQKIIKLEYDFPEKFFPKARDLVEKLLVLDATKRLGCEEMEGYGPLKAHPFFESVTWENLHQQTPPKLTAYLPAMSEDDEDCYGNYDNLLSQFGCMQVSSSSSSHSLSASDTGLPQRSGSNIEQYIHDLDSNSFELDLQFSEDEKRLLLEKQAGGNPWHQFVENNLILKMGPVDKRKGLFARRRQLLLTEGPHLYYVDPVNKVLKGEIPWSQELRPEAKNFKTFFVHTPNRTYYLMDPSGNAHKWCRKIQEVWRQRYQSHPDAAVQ

Molecule: NCC(=O)Nc1ccc(-n2nc(C(F)(F)F)cc2-c2ccc3c(ccc4ccccc43)c2)cc1 [OSU-03012]
- intracellular survival of F. novicida [1]: drastically reduced; also recorded: reduced intracellular survival
- IC50 [2]: ~5 µM
- oral bioavailability / pharmacokinetic properties [3]: orally bioavailable with favorable pharmacokinetic properties
- extracellular growth of S. typhimurium [4]: unaffected
- concentration of maximal inhibition of intracellular bacterial survival ([5]; S. typhimurium in RAW 264.7, 8 h of treatment): 1 µM
- IC50 ([5]; Salmonella enterica, RAW264.7, S. typhimurium in RAW 264.7, 8 h of treatment, read-out: IC50 of intracellular bacterial survival): ~0.2 µM
- IC50 for autophagy induction [6]: sub-μM

Molecule: 4-[5-(9H-fluoren-2-yl)-3-(trifluoromethyl)-1H-1-yl]benzenesulfonamide [Compound 57]
- IC50 [2]: 16 µM

Molecule: 4-[5-4-biphenylyl)-3-(trifluoromethyl)-1H-pyrazol-1-yl]benzensulfonamide [Compound 45]
- IC50 [2]: 21 µM
- IC50 [7, 12]: 11 µM

Molecule: Cc1ccc(-c2cc(C(F)(F)F)nn2-c2ccc(S(N)(=O)=O)cc2)cc1 [Comparative Compound, 4-[5-(4-methylphenyl)-3-(trifluoromethyl)-1H-pyrazol-1-yl]benzenesulfonamide, reference compound]
- IC50 ([7]; Homo sapiens, PC-3, read-out: IC50 PC-3): 30 µM

Molecule: 4-[5-(4′-butyl[1,1′-biphenyl]-4-yl)-3-(trifluoromethyl)-1H-1-yl]benzenesulfonamide [Compound 54]
- IC50 [2]: 32 µM
- IC50 [7, 12]: 15 µM

Molecule: 4-[5-(4-(phenylmethyl)phenyl)-3-(trifluoromethyl)-1H-1-yl]benzenesulfonamide [Compound 56]
- IC50 [2]: 15 µM
- IC50 [7, 12]: 8 µM

Molecule: CO[C@H]1C[C@@H]2CC[C@@H](C)[C@@](O)(O2)C(=O)C(=O)N2CCCC[C@H]2C(=O)O[C@H]([C@H](C)C[C@@H]2CC[C@@H](O)[C@H](OC)C2)CC(=O)[C@H](C)/C=C(\C)[C@@H](O)[C@@H](OC)C(=O)[C@H](C)C[C@H](C)/C=C/C=C/C=C/1C [rapamycin]
- suppression of survival of S. typhimurium in murine macrophages [5]: capable of suppressing survival
- fold higher concentration required to match bacterial clearance caused by OSU-03012 ([5]; S. typhimurium in murine macrophages): ~100 fold

Molecule: 4-[5-(4′-tert-buty[1,1′-biphenyl]-4-yl)-3-(trifluoromethyl)-1H-1-yl]benzenesulfonamide [Compound 55]
- IC50 [2]: 32 µM
- IC50 [7, 12]: 15 µM

Molecule: 4-[5-(4′-bromomethyl[1,1′-biphenyl]-4-yl)-3-(trifluoromethyl)-1H-1-yl]benzenesulfonamide [Compound 52]
- IC50 [2]: 20 µM
- IC50 [7, 12]: 11 µM

Molecule: 4-[5-(4′-methyl[1,1′-biphenyl]4-yl)-3-(trifluoromethyl)-1H-1-yl]benzenesulfonamide [Compound 50]
- IC50 [7, 12]: 8 µM

Molecule: 5-(2-Phenanthrenyl)-3-(trifluoromethyl)-4-(1H-tetrazol-5-ylmethylphenyl)-1H-pyrazole [Compound 69]
- IC50 [2]: 45 µM
- IC50 [7, 12]: 27 µM

Molecule: 4-[5-(2-phenanthrenyl)-3-(trifluoromethyl)-1H-1-yl]benzenesulfonamide [Compound 59]
- IC50 [8]: 5 µM
- Akt dephosphorylation (Western blot) [9]: significant Akt dephosphorylation
- anti-proliferative activity on PC-3 cell proliferation [10]: substantial anti-proliferative activity
- improvement of IC50 values over 4-[5-(4-methylphenyl)-3-(trifluoromethyl)-1H-pyrazol-1-yl]benzenesulfonamide ([2]; PDK-1 activity and PC-3 cell viability): five- to six-fold
- IC50 ([7]; 24 h, 1% FBS-containing RPMI 1640 medium, read-out: dose required to induce 50% PC-3 cell death): 5 µM
- IC50 [7, 12]: 5 µM
- direct inhibitory effect on immunoprecipitated Akt kinase activity [11]: Neither compound 59 nor other the other compounds displayed a direct inhibitory effect

Molecule: Cn1cnc(N)c2ncnc1-2 [Compound 3MA, 3-methyladenine]
- effect on ability of OSU-03012 to reduce intracellular bacterial survival ([5]; infected RAW 264.7 cells, 1 μM OSU-03012 for 8 h): completely blocked

Molecule: 4-[5-(3′,5′-dimethyl[1,1;-biphenyl]-4-yl)-3-(trifluoromethyl)-1H-1-yl]benzenesulfonamide [Compound 53]
- IC50 [2]: 17 µM

Molecule: 5-(2-Phenanthrenyl)-3-(trifluoromethyl)-4-(1H-tetrazol-5-ylphenyl)-1H-pyrazole [Compound 64]
- IC50 [2]: 52 µM
- IC50 [7, 12]: 32 µM

Molecule: 4-[5-(4′triflouromethyl[1,1′-biphenyl]-4-yl)-3-(trifluoromethyl)-1H-1-yl]benzenesulfonamide [Compound 51]
- IC50 [2]: 18 µM
- IC50 [7, 12]: 8 µM

Molecule: 4-[5-(9-phenanthrenyl)-3-(trifluoromethyl)-1H-1-yl]benzenesulfonamide [Compound 60]
- IC50 [2]: 42 µM
- IC50 [7, 12]: 23 µM
